Tests used:
Format in all cases: cell-based
IGF1R = biological target: T1, IGF1R (Homo sapiens, UniProt P08069); assay: Western blot, IGF1R phosphorylation; conditions: same concentrations (1, 5, 10, 20 μM), 1 h
T1 construct: 将细胞以每孔15万的量接种在24孔板内; endogenous in cells

IKK-α/β = assay: Western blot, IKK-α/β phosphorylation; conditions: TNF-α induced, 10 min; compound 1, 5, 10, 20 μM, 1 h
PDGFRβ = biological target: T2, PDGFRβ (Homo sapiens, UniProt P09619); assay: Western blot, PDGFRβ phosphorylation; conditions: same concentrations (1, 5, 10, 20 μM), 1 h
T2 construct: 将细胞以每孔15万的量接种在24孔板内; endogenous in cells

JAK2 = biological target: T3, JAK2 (Homo sapiens, UniProt O60674); assay: Western blot, JAK2 phosphorylation; conditions: IL-6, IFN-γ and IFN-α induced, 10 min; compound 1, 5, 10, 20 μM, 1 h
T3 construct: 将细胞以每孔15万的量接种在24孔板内; endogenous in cells; HepG2 and HEK293 are the only lines named

[1] = test system: STAT3 transcription factor [STAT3转录因子]; assay: STAT3 luciferase reporter gene assay (IL-6 induced); conditions: HepG2 cells stably transfected with reporter; IL-6 10 ng/ml induced; compound 1-40 μM, added 1 h before stimulus; read 5 h after
TYK2 = biological target: T4, TYK2 (Homo sapiens, UniProt P29597); assay: Western blot, TYK2 phosphorylation; conditions: IL-6, IFN-γ and IFN-α induced, 10 min; compound 1, 5, 10, 20 μM, 1 h
T4 construct: 将细胞以每孔15万的量接种在24孔板内; endogenous in cells; HepG2 and HEK293 are the only lines named

[2] = test system: STAT1 transcription factor [STAT1转录因子]; assay: STAT1 luciferase reporter gene assay (IFN-γ induced); conditions: HepG2 cells stably transfected with reporter; IFN-γ 10 ng/ml induced; compound 1-40 μM, added 1 h before stimulus; read 5 h after
IκBα = assay: Western blot, IκBα phosphorylation; conditions: TNF-α induced, 10 min; compound 1, 5, 10, 20 μM, 1 h
STAT3 = assay: Western blot, STAT3 phosphorylation; conditions: IL-6 induced, 10 min; compound 1, 5, 10, 20 μM, 1 h
STAT1 = assay: Western blot, STAT1 phosphorylation; conditions: IFN-γ induced, 10 min; compound 1, 5, 10, 20 μM, 1 h
JAK1 = biological target: T5, JAK1 (Homo sapiens, UniProt P23458); assay: Western blot, JAK1 phosphorylation; conditions: IL-6, IFN-γ and IFN-α induced, 10 min; compound 1, 5, 10, 20 μM, 1 h
T5 construct: 将细胞以每孔15万的量接种在24孔板内; endogenous in cells; HepG2 and HEK293 are the only lines named

[3] = test system: NF-κB signalling pathway [NF-κB信号通路]; assay: NF-κB luciferase reporter gene assay (TNF-α induced); conditions: HEK293 cells with reporter; TNF-α 10 ng/ml induced; compound 1-40 μM, added 1 h before stimulus; read 5 h after
EGFR = biological target: T6, EGFR (Homo sapiens, UniProt P00533); assay: Western blot, EGFR phosphorylation; conditions: same concentrations (1, 5, 10, 20 μM), 1 h
T6 construct: 将细胞以每孔15万的量接种在24孔板内; endogenous in cells

PDGFRα = biological target: T7, PDGFRα (Homo sapiens, UniProt P16234); assay: Western blot, PDGFRα phosphorylation; conditions: same concentrations (1, 5, 10, 20 μM), 1 h
T7 construct: 将细胞以每孔15万的量接种在24孔板内; endogenous in cells
T7 sequence (P16234 24-1089): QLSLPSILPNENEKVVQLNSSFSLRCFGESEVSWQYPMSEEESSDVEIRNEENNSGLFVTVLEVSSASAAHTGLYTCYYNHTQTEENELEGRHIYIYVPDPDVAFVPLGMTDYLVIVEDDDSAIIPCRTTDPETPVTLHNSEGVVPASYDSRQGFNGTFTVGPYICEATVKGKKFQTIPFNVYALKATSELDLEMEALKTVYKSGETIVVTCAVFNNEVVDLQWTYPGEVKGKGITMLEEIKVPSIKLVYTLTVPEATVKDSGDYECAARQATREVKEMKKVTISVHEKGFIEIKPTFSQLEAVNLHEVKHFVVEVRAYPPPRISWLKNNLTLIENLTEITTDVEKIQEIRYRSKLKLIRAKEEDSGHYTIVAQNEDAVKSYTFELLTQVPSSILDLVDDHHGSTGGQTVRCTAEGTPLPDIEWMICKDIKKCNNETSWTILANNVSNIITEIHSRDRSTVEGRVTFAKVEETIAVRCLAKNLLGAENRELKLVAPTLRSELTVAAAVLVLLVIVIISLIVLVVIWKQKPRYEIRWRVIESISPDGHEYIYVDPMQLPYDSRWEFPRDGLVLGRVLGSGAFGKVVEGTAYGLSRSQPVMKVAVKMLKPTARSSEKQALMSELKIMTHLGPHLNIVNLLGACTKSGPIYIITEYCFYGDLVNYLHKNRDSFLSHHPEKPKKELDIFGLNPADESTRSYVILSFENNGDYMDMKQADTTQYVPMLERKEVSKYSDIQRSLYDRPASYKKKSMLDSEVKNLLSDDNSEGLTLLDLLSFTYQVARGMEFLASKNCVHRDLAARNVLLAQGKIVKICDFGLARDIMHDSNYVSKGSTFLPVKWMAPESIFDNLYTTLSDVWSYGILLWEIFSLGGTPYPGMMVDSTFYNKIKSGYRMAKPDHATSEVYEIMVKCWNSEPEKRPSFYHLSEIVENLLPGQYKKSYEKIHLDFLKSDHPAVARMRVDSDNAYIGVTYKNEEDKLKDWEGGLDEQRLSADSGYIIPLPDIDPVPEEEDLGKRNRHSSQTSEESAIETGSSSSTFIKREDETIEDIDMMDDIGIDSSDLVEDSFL

T1 sequence (P08069 31-1367): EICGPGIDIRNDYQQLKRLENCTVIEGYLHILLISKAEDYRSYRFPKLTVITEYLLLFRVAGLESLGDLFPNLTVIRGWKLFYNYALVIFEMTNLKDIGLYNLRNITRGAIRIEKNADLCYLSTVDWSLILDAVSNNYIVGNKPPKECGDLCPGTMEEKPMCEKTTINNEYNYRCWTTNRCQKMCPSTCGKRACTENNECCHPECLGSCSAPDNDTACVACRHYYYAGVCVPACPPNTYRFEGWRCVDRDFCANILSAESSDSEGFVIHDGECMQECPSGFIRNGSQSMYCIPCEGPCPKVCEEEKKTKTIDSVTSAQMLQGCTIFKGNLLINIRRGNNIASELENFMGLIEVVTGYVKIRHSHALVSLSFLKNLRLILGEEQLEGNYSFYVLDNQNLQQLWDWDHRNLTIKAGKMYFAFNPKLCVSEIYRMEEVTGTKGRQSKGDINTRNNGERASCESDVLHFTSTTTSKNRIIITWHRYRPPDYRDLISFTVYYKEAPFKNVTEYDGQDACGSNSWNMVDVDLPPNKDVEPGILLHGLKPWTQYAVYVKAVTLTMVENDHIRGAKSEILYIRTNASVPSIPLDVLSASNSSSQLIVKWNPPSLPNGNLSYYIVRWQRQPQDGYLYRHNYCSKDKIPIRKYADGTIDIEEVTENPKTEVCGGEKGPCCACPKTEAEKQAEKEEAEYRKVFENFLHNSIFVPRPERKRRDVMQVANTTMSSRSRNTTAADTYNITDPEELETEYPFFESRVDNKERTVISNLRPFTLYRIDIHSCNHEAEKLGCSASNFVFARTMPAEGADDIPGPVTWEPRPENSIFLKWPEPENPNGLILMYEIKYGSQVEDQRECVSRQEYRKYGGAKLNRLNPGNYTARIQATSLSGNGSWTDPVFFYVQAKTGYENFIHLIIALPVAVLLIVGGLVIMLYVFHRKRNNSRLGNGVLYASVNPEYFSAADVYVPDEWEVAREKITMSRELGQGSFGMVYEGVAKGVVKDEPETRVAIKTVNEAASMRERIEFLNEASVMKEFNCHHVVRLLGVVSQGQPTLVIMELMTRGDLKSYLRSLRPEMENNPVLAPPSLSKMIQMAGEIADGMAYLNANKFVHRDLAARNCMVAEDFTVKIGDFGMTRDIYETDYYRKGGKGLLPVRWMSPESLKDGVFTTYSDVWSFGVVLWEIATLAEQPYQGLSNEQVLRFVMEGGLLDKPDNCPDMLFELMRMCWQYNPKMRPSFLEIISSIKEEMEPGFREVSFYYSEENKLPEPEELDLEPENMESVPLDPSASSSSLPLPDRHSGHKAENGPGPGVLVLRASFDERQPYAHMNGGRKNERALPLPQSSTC
T4 sequence (P29597 whole entry): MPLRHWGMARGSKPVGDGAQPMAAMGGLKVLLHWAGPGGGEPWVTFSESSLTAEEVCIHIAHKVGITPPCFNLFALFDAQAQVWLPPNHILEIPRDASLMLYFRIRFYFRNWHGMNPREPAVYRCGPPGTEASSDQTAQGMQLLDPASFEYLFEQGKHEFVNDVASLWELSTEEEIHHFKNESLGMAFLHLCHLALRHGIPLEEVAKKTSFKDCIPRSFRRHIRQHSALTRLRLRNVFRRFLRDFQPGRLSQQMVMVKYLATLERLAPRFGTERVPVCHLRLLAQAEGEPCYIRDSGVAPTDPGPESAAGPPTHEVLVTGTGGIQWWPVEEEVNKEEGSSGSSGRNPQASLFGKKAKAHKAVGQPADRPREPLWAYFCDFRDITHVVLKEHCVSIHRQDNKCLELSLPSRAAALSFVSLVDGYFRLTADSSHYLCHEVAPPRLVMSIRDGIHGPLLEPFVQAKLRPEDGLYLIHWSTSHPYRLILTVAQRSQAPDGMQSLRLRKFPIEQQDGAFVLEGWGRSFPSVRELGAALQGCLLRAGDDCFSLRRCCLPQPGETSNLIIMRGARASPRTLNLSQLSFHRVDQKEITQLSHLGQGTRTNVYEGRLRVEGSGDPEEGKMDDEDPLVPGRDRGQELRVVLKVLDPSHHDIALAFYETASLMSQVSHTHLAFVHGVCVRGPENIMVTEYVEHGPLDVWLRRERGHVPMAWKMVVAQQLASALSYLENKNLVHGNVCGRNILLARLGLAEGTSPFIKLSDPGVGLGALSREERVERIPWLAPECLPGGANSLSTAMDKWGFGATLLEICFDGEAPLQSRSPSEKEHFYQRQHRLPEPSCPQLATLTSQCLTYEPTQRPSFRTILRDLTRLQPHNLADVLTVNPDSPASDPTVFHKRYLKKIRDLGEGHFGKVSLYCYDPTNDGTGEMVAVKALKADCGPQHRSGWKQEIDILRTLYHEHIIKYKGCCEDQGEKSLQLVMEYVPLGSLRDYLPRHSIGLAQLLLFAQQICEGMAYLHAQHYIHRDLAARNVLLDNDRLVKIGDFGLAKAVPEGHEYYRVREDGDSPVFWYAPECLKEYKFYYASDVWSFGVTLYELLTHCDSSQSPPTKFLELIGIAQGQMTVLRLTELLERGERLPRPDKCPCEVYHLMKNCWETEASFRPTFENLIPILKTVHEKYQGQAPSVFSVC
T3 sequence (O60674 whole entry): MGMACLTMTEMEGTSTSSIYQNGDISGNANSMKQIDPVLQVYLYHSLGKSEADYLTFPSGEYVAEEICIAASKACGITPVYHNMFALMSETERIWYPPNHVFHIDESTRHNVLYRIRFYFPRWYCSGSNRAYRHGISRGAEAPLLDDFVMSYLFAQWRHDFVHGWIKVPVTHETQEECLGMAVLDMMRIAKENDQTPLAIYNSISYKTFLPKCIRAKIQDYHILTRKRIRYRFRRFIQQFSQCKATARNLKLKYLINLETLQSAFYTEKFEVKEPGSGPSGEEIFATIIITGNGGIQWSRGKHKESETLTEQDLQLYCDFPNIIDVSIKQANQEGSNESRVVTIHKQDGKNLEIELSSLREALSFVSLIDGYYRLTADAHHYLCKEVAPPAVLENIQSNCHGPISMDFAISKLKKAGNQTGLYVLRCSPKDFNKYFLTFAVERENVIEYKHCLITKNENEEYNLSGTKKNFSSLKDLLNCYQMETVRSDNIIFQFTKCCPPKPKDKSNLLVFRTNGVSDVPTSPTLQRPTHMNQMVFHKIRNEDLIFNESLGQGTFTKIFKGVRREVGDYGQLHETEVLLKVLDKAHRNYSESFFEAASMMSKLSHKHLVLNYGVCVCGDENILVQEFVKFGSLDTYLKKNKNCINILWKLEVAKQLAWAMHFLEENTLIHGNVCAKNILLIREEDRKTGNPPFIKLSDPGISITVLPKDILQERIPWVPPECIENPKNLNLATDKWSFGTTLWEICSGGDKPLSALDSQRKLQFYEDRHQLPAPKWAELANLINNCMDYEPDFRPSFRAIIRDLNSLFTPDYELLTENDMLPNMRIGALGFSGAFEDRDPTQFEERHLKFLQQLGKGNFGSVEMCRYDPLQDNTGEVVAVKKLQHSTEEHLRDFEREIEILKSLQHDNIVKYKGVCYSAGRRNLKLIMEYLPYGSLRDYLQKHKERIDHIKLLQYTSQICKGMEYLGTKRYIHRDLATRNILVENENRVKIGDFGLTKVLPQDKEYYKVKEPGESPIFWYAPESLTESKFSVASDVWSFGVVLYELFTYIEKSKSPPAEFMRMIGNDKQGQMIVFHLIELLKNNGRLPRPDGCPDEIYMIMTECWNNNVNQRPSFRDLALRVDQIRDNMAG

COc1cc(C=CC(=O)OCCCc2cc(OC)c3c(c2)C(COC(=O)C=Cc2ccc(O)c(OC)c2)C(c2ccc(O)c(OC)c2)O3)ccc1O (centres unmarked) [赤麻木脂素, 3-(4-Hydroxy-3-methoxyphenyl)propenoic acid 3-[2,3-dihydro-2-(4-hydroxy-3-methoxyphenyl)-3-[[[3-(4-hydroxy-3-methoxyphenyl)-1-oxo-2-propenyl]oxy]methyl]-7-methoxybenzofuran-5-yl]propyl ester]
浓度依赖性的抑制: inhibition of NF-κB signalling pathway (NF-κB-dependent luciferase activity) [3]
剂量依赖性的抑制: inhibition of transcriptional activity of STAT3 transcription factor (luciferase) [1] | inhibition of transcriptional activity of STAT1 transcription factor (luciferase) [2]
没有抑制作用: effect on phosphorylation of other tyrosine kinases (IGF1R) (IGF1R) | effect on phosphorylation of other tyrosine kinases (PDGFRβ) (PDGFRβ) | effect on phosphorylation of other tyrosine kinases (EGFR) (EGFR) | effect on phosphorylation of other tyrosine kinases (PDGFRα) (PDGFRα)
抑制: inhibition of IKK-α/β phosphorylation (IKK-α/β) | inhibition of JAK phosphorylation (p-JAK2) (JAK2) | inhibition of JAK phosphorylation (p-TYK2) (TYK2) | inhibition of IκBα phosphorylation (IκBα) | inhibition of STAT3 phosphorylation (STAT3) | inhibition of STAT1 phosphorylation (STAT1) | inhibition of JAK phosphorylation (p-JAK1) (JAK1)

From CN111743889A, “赤麻木脂素的新用途” (Shanghai Institute of Materia Medica of CAS, priority 2019, dated 2020)
